Source: patent US20210147814A1, “METHODS FOR GENERATING PLURIPOTENT STEM CELLS” (Memorial Sloan Kettering Cancer Center, priority 2017, published 2021)
Like-named read-outs stand apart in the source and are kept apart here.

What was measured:
pATM [1] = experiment: Immunoblot of pATM after phleomycin treatment in BSO-A-iPSC; format: cell-based; details: 0.5 mM from end of reprogramming day 5, ten independent clones of A-iPSC
Protocol: Immunoblot analysis. […] Secondary antibodies were from Cell Signaling (1:10,000).
BSO treatment. BSO-A-iPSC were generated in the presence of 500 μM of L-Buthionine-sulfoximine (BSO, Sigma, B2515) starting on the end of reprogramming day 5. The treatment was kept throughout the end of reprogramming process and after picking the colonies.
BSO-A-iPSC were generated in the presence of 500 μM of L-Buthionine-sulfoximine (BSO, Sigma B2515) starting on the end of reprogramming day 5 as previously described (see, e.g., Ji, et al. Experimental & Molecular Medicine 42:175-186 (2010)).

somatic cells = experiment: Modification of cellular ROS levels in high-ROS / low-ROS somatic cells; format: cell-based, human; details: 4 hours
mouse A-iPSC = experiment: DNA damage response in mouse A-iPSC treated with GSS inhibitor; format: cell-based; details: treatment of mouse A-iPSC; data not shown
Description: A-iPSC have excessive levels of glutathione (FIG. 3D) and elevated ROS scavenging activity (FIG. 3E) relative to Y-iPSC or ESC. While ROS levels in A-iPSC were increased by treatment with DNA damaging agents (FIG. 3E) and this might be sufficient to cause direct DNA damage and genomic instability, improper scavenging of ROS by excess glutathione would limit the ROS cellular stress signal needed to induce the DNA damage response, which would in turn reduce apoptosis and increase A-iPSC exposure to additional genotoxic stress, allowing accumulation of mutations and other genomic alterations. Upon ZSCAN10 expression, glutathione and ROS scavenging activity were normalized to levels equivalent to those seen in Y-iPSC and ESC (FIG. 3D, 3E). In addition, shRNA knockdown of GSS in reprogrammed A-iPSC (data not shown) decreased glutathione levels and ROS scavenging activity (data not shown), increased apoptosis (FIG. 3F), and recovered the DNA damage response (FIG. 3G). The DNA damage response was also recovered by treatment of A-iPSC with the GSS pharmacological inhibitor, L-Buthionine-sulfoximine (BSO) (data not shown). Conversely, overexpression of GSS in Y-iPSC (data not shown) increased glutathione and ROS scavenging activity (data not shown), decreased apoptosis (FIG. 3F), and blunted the DNA damage response (FIG. 311).

[2] = tested on: G-quadruplex (G4) DNA structure; experiment: G4 DNA structure formation (G4 IHC staining, G4-antibody ChIP-seq) in fibroblasts; format: cell-based, human; details: for G4 level / G4 DNA structure formation: 4 hours; for G4 DNA structure formation: cells with high ROS levels
Protocol: G4 and 8-oxoguanosine Immunostaining. Cells were fixed in 3.7% formaldehyde for 20 minutes at room temperature and washed with phosphate buffered saline (PBS). Samples were then permeabilized with 0.1 Triton X-100 in PBS for 20 minutes and blocked for 1 hour with 3% bovine serum albumin (BSA) in PBS-T, followed by incubation with primary antibodies for 2 hours at room temperature or overnight at 4° C. Anti-DNA G-quadruplex (G4) Antibody, clone 1H6 (MABE1126, EMD Millipore, Burlington, Mass.) was used for the detection of DNA G-quadruplex and ANTI-8 HYDROXYGUANOSINE AB (N45.1) AB48508 from Abcam (Cambridge, United Kingdom). Primary antibodies were used at a 1:250 dilution and 1:50 respectively. Alexa 568-conjugated goat anti-mouse IgM (A-21124) was from Molecular Probes (Eugene, Oreg.). Secondary antibodies were used at a 1:1000 dilution. The nuclei were stained with 4′,6-diamidino-2-phenylindole (DAPI, Sigma, St. Louis, Mo.). Image quantification was performed with Image J (NIH, Bethesda, Md.), quantifying mean fluorescence intensity in the nuclear regions.
GSH and BSO Treatment, Time-Course Experiment. High ROS fibroblasts were treated by adding glutathione reduced ethyl ester (3 mM, GEE; Gold Biotechnology Inc., St. Louis, Mo.) to the media. Treated High ROS fibroblasts were then fixed and processed for staining at multiple timepoints. Low ROS fibroblasts were treated with L-Buthionine-sulfoximine (500 μM, BSO; Sigma, St. Louis, Mo.) to the media. Treated Low ROS fibroblasts were then fixed and processed for staining at multiple timepoints.
CHIP-SEQ for G4 Structures. Chromatin immunoprecipitation (ChIP) was performed according to the published protocol (see Carey, M. F., et al., Chromatin Immunoprecipitation (ChIP), COLD SPRING HARB PROTOC (CSH Press) (2009)). Anti-DNA G-quadruplex (G4) Antibody, clone 1H6 (MABE1126, EMD Millipore, Burlington, Mass.) was used for the detection of DNA G-quadruplex.

A-SC from AG4 donor = details: 3 mM for three days in the media
Description: Reactive oxygen species (ROS) analysis. The production of superoxide by mitochondria can be visualized in fluorescence microscopy using the MitoSOX™ Red reagent (M36008, Thermofisher scientific). MitoSOX™ Red reagent permeates live cells where it selectively targets mitochondria. It is rapidly oxidized by superoxide but not by other reactive oxygen species (ROS) and reactive nitrogen species (RNS). The oxidized product is highly fluorescent upon binding to nucleic acid. Fluorescence microscopy was used to visualize the fluorescence and imaging software (Image J) was used to quantify the staining of the different cell lines.
MitoSOX RED Staining. MitoSOX Red staining (MitoSOX™ Red mitochondrial superoxide indicator *for live-cell Imaging, M36008, ThermoFisher Scientific, Waltham, Mass.) was performed according to Molecular Probes/Thermo Scientific protocol. Briefly, the MitoSOX™ reagent stock solution (5 mM, prepared in HBSS/Ca/Mg or suitable buffer) was diluted to make a 5 μM MitoSOX™ reagent working solution. 1.0-2.0 mL of the 5 μM MitoSOX™ reagent working solution was applied to cover cells adhering to coverslip(s). Cells were incubated for 10 minutes at 37° C., protected from light. Cells were washed before imaging.

GSS = details: A-iPSC generated with 3 mM treatment; vs untreated A-iPSC
Protocol: (§1) Quantitative real time-PCT (Q-PCR) analysis. The expression levels of genes (ZSCAN10, GSS) were quantified by Q-PCR with Power SYBR Green PCR mastermix (Applied Biosystems). Total RNAs (1 μg) were reverse-transcribed in a volume of 20 μL using the M-MuLV Reverse Transcriptase system (New England Biolabs), and the resulting cDNA was diluted into a total volume of 200 μL. 10 μL of this synthesized cDNA solution was used for analysis. For pluripotent genes, each reaction was performed in a 25-μL volume using the Power SYBR Green PCR mastermix (Applied Biosystems). The conditions were programmed as follows: initial denaturation at 95° C. for 10 min followed by 40 cycles of 30 sec at 95° C., 1 min at 55° C., and 1 min at 72° C.; then 1 min at 95° C., 30 s at 55° C., and 30 sec at 95° C. All of the samples were duplicated, and the PCR reaction was performed using an Mx3005 reader (Stratagene), which can detect the amount of synthesized signals during each PCR cycle. The relative amounts of the mRNAs were determined using the MxPro program (Strategene). The amount of PCR product was normalized to the percentage of the expression level of β-actin.

ZSCAN10 = details: A-iPSC generated with 3 mM treatment; vs untreated A-iPSC
Protocol: as §1

human AG4 fibroblasts = details: AG4-GSH vs AG4 control, 100,000 cells each, iPSC colonies counted at day 21
Protocol: (§2) For the generation of human A-iPSC, 10^5 skin fibroblasts such as young somatic cells (Y-SC) from MRCS and aged somatic cells (A-SC) from LS and AG4 donors aged 80 to 100 years were infected with retrovirus generated from the tetracistronic SFG-SV2 vector encoding for hOCT4, hSOX2, hKLF4, and hMYC in 6-well dishes with 0.5 mL of each viral supernatant (total 2 mL per well); and spun at 2500 rpm at RT for 90 min (BenchTop Centrifuge, BeckmanCoulter, Allegra-6R). The cells were contacted with 3 mM glutathione reduced ethyl ester prior to and during the early stage of reprogramming (from one day before reprogramming virus infection to 10 days post reprogramming virus infection).

pATM [3] = details: A-hiPSC from AG4 fibroblasts, 3 mM from one day before to 10 days post reprogramming virus infection, phleomycin 2 h, 30 μg/mL, vs untreated A-hiPSC
Protocol: as §2

human A-iPSC = tested on: human A-iPSC
Protocol: as §2
Copy number profiling analysis. Copy number profiling analysis was performed according to a published protocol (Baslan et al., Genome Research 25:1-11 (2015)).

CCCCS(=N)(=O)CCC(N)C(=O)O [BSO, L-Buthionine-sulfoximine]
DNA damage response (pATM immunoblot) (pATM [1]): recovery of the DNA damage response
cellular ROS level (somatic cells; 0.5 mM, low-ROS somatic cells): increases
DNA damage response (mouse A-iPSC): recovered
G4 level ([2]; 0.5 mM, low-ROS somatic cells): increases
G4 IHC staining of fibroblasts ([2]; low ROS fibroblasts, 500 μM, time-course (FIG. 14B)): higher G4 IHC staining

N[C@@H](CCC(=O)N[C@@H](CS)C(=O)NCC(=O)O)C(=O)O [glutathione reduced ethyl ester]
cellular ROS level (MitoSOX staining) (A-SC from AG4 donor): reduces the cellular ROS level
GSS levels in the A-iPSC (Q-PCR) (GSS): reduced
ZSCAN10 levels in the A-iPSC (Q-PCR) (ZSCAN10): elevated
cellular ROS level (somatic cells; 3 mM, high-ROS somatic cells): decreases
increase of reprogramming efficiency (human AG4 fibroblasts): approximately 10 fold
DNA damage response (pATM immunoblot) (pATM [3]): protects the DNA damage response
DNA damage response (pATM immunoblot) (pATM [3]; listed as glutathione): impairs the DNA damage response
G4 DNA structure formation ([2]; 3 mM): reduces G4 DNA structure formation
G4 DNA structure formation ([2]; 3 mM, listed as GEE): decreases
G4 IHC staining of fibroblasts ([2]; high ROS fibroblasts, 3 mM, time-course (FIG. 14A)): lower G4 IHC staining
genomic stability (copy number profiling) (human A-iPSC; A-hiPSC from AG4 fibroblasts, 3 mM prior to and during first 10 days of reprogramming, vs untreated A-hiPSC): maintains genomic stability
detected rearrangements per number of clones (copy number profiling) (human A-iPSC; human A-iPSC with glutathione treatment, 10 clones, untreated A-hiPSC 7/11): 0/10

NCCOc1cc(C(=O)Nc2cc(OCCN)c3ccccc3n2)nc(C(=O)Nc2cc(OCCN)c3ccccc3n2)c1 [pyridostatin]
G4 level ([2]; 10 μM, somatic cells): increases G4
